# Experiments:
# [1] = test system: acute traumatic or chronic wounds; test: Clinical study on 6 dogs with acute traumatic or chronic wounds with delayed healing; format: in vivo
# Description: A clinical study of the effect of the combination used in the present invention was carried out on 6 dogs carrying inflammatory pathological conditions having led to acute traumatic or chronic wounds caused by lesion due to scratching with delayed healing.
# The composition of the invention was applied in spray lotion form, twice a day, directly onto the wound to be treated. The results were observed 1 (D1), 2(D2), 3(D3), 5(D5) and 7(D7) days after the 1st application.
# [2] = test system: traumatic or chronic wounds
compound,measurement,setting,value
Nc1ccc(S(=O)(=O)Nc2ncccn2)cc1 [sulfadiazine],Rapidity of response to the applications,"[1]; acute or chronic wounds, observed most commonly",such a rapid response is never observed
same,Effectiveness of treatments carried out previously,"[1]; the 6 dogs, before the study",ineffective
same,Effectiveness on healing,[2],not very effective
